Laboratory results: the supplement of paper PMC6045584
± gives the standard deviation of the averaged measurements.

Assays:
[1] = compound: CCCS(=O)(=O)Nc1ccc(F)c(C(=O)c2c[nH]c3ncc(Cl)cc23)c1F [PLX-4720]; assay: surviving fraction relative to DMSO-only wells; higher = less growth inhibition; conditions: exposure time: 5 days
Outline: (§1)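 Tumour cell lines were grown to log phase and seeded at 250–500 cells per well in 384-well plates. They were exposed continuously to inhibitors at 0.5, 1, 5, 10, 50, 100, 500 and 1000 nM for five days, beginning 24 hours after seeding. Surviving fraction is CellTiter-Glo luminescence normalised to the median of DMSO-only wells.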

[2] = compound: O=C(NOCC1CC1)c1ccc(F)c(F)c1Nc1ccc(I)cc1Cl; assay: as above; conditions: exposure time: 5 days
Outline: as §1

Row | Test System | surviving fraction ([1]; 0.5 nM) | surviving fraction ([1]; 1 nM) | surviving fraction ([1]; 5 nM) | surviving fraction ([1]; 10 nM) | surviving fraction ([1]; 50 nM) | surviving fraction ([1]; 100 nM) | surviving fraction ([1]; 500 nM) | surviving fraction ([1]; 1000 nM) | surviving fraction ([2]; 0.5 nM) | surviving fraction ([2]; 1 nM) | surviving fraction ([2]; 5 nM) | surviving fraction ([2]; 10 nM) | surviving fraction ([2]; 50 nM) | surviving fraction ([2]; 100 nM) | surviving fraction ([2]; 500 nM) | surviving fraction ([2]; 1000 nM)
1 | MDAMB361 BREAST | 0.888 ± 0.076 | 0.865 ± 0.035 | 0.8033 ± 0.0065 | 0.792 ± 0.035 | 0.991 ± 0.074 | 0.918 ± 0.097 | 0.96 ± 0.097 | 0.86 ± 0.078 | 1.06 ± 0.12 | 0.887 ± 0.067 | 0.986 ± 0.076 | 0.973 ± 0.029 | 0.963 ± 0.083 | 1.03 ± 0.019 | 1.05 ± 0.072 | 0.972 ± 0.12
2 | MDAMB436 BREAST | 0.754 ± 0.019 | 0.831 ± 0.092 | 0.837 ± 0.052 | 0.821 ± 0.024 | 0.9 ± 0.096 | 0.943 ± 0.066 | 0.901 ± 0.062 | 0.909 ± 0.1 | 0.904 ± 0.065 | 0.905 ± 0.024 | 0.932 ± 0.026 | 0.883 ± 0.029 | 0.8685 ± 0.0053 | 0.959 ± 0.085 | 0.944 ± 0.023 | 0.78 ± 0.016
3 | MDAMB453 BREAST | 0.963 ± 0.054 | 1.01 ± 0.048 | 1.04 ± 0.071 | 1.01 ± 0.044 | 0.977 ± 0.075 | 1.03 ± 0.083 | 1.03 ± 0.044 | 1.03 ± 0.042 | 0.958 ± 0.033 | 1.02 ± 0.062 | 1.02 ± 0.072 | 0.992 ± 0.046 | 1.03 ± 0.094 | 1.05 ± 0.028 | 1.02 ± 0.06 | 1.06 ± 0.03
4 | MDAMB468 BREAST | 0.827 ± 0.026 | 0.828 ± 0.0072 | 0.895 ± 0.028 | 0.928 ± 0.024 | 1.04 ± 0.03 | 1.08 ± 0.037 | 0.961 ± 0.045 | 0.924 ± 0.025 | 0.938 ± 0.079 | 0.983 ± 0.083 | 1.02 ± 0.029 | 1 ± 0.11 | 0.933 ± 0.046 | 0.998 ± 0.038 | 0.885 ± 0.029 | 0.913 ± 0.0098
5 | MFM223 BREAST | 0.709 ± 0.032 | 0.758 ± 0.066 | 0.691 ± 0.098 | 0.754 ± 0.057 | 0.97 ± 0.11 | 1.01 ± 0.062 | 0.981 ± 0.025 | 1.01 ± 0.11 | 1.09 ± 0.046 | 1.06 ± 0.088 | 1.05 ± 0.059 | 1.07 ± 0.089 | 1.14 ± 0.037 | 1.12 ± 0.057 | 1.012 ± 0.0095 | 1.04 ± 0.03
6 | MG63 BONE | 0.875 ± 0.01 | 0.884 ± 0.025 | 0.926 ± 0.016 | 0.937 ± 0.016 | 0.941 ± 0.012 | 0.958 ± 0.015 | 0.933 ± 0.013 | 0.963 ± 0.033 | 0.9313 ± 0.0065 | 0.969 ± 0.018 | 0.976 ± 0.016 | 0.997 ± 0.017 | 0.935 ± 0.0096 | 0.957 ± 0.011 | 0.85 ± 0.018 | 0.859 ± 0.022
7 | MHM BONE | 0.9713 ± 0.0025 | 0.96 ± 0.016 | 1 ± 0.023 | 1.02 ± 0.021 | 0.97 ± 0.022 | 1.01 ± 0.031 | 0.949 ± 0.0092 | 1.01 ± 0.038 | 0.947 ± 0.024 | 0.906 ± 0.095 | 0.992 ± 0.013 | 1.01 ± 0.015 | 0.974 ± 0.028 | 0.971 ± 0.048 | 0.926 ± 0.022 | 0.931 ± 0.032
8 | NCIH441 LUNG | 0.899 ± 0.056 | 0.906 ± 0.072 | 0.919 ± 0.1 | 0.965 ± 0.016 | 0.933 ± 0.045 | 0.968 ± 0.025 | 0.961 ± 0.044 | 0.898 ± 0.085 | 0.939 ± 0.093 | 0.968 ± 0.084 | 0.945 ± 0.026 | 0.984 ± 0.041 | 0.909 ± 0.013 | 0.846 ± 0.031 | 0.722 ± 0.023 | 0.757 ± 0.053
9 | NOS1 BONE | 0.85 ± 0.15 | 1 ± 0.11 | 0.961 ± 0.069 | 0.994 ± 0.2 | 1.17 ± 0.059 | 1.25 ± 0.12 | 1.11 ± 0.12 | 0.911 ± 0.057 | 1.15 ± 0.08 | 1.15 ± 0.075 | 1.16 ± 0.057 | 1.16 ± 0.062 | 0.949 ± 0.065 | 0.952 ± 0.1 | 0.863 ± 0.054 | 0.773 ± 0.016
10 | NY BONE | 0.905 ± 0.038 | 0.909 ± 0.026 | 0.933 ± 0.016 | 0.959 ± 0.02 | 0.949 ± 0.014 | 0.9663 ± 0.004 | 0.932 ± 0.0095 | 0.9273 ± 0.0065 | 0.923 ± 0.029 | 0.9257 ± 0.0055 | 0.953 ± 0.02 | 0.975 ± 0.023 | 0.97 ± 0.026 | 0.993 ± 0.028 | 0.93 ± 0.024 | 0.921 ± 0.037
11 | OS25HAL BONE | 0.902 ± 0.013 | 0.925 ± 0.016 | 0.934 ± 0.0061 | 0.942 ± 0.02 | 0.976 ± 0.01 | 0.98 ± 0.015 | 0.966 ± 0.0046 | 0.974 ± 0.014 | 0.951 ± 0.024 | 0.964 ± 0.02 | 0.931 ± 0.033 | 0.971 ± 0.025 | 0.955 ± 0.015 | 0.989 ± 0.012 | 0.943 ± 0.012 | 0.954 ± 0.024
12 | OSHN BONE | 0.859 ± 0.011 | 0.882 ± 0.017 | 0.89 ± 0.025 | 0.904 ± 0.018 | 0.944 ± 0.035 | 0.9783 ± 0.0029 | 0.978 ± 0.019 | 0.975 ± 0.016 | 0.969 ± 0.026 | 0.983 ± 0.029 | 0.979 ± 0.019 | 0.988 ± 0.028 | 0.969 ± 0.03 | 0.989 ± 0.016 | 0.973 ± 0.018 | 1 ± 0.027
13 | PCI30 HEADNECK | 1.03 ± 0.057 | 0.987 ± 0.0079 | 1.01 ± 0.032 | 1.06 ± 0.011 | 1 ± 0.024 | 1.07 ± 0.082 | 0.938 ± 0.087 | 0.959 ± 0.07 | 0.831 ± 0.027 | 0.849 ± 0.074 | 1.02 ± 0.078 | 1.01 ± 0.029 | 0.903 ± 0.015 | 0.758 ± 0.026 | 0.433 ± 0.036 | 0.402 ± 0.023
14 | RDES SOFT TISSUE | 0.795 ± 0.13 | 0.683 ± 0.12 | 0.7 ± 0.079 | 0.747 ± 0.058 | 1.04 ± 0.11 | 0.989 ± 0.25 | 0.994 ± 0.054 | 0.793 ± 0.13 | 1.33 ± 0.025 | 1.27 ± 0.071 | 1.32 ± 0.15 | 1.33 ± 0.093 | 1.28 ± 0.1 | 1.29 ± 0.085 | 1.37 ± 0.16 | 1.24 ± 0.082
15 | S68 BREAST | 0.773 ± 0.17 | 0.685 ± 0.22 | 0.775 ± 0.18 | 0.778 ± 0.19 | 1 ± 0.31 | 1.06 ± 0.12 | 1.09 ± 0.16 | 0.962 ± 0.15 | 0.917 ± 0.13 | 0.918 ± 0.21 | 0.901 ± 0.063 | 1.04 ± 0.27 | 0.801 ± 0.18 | 0.852 ± 0.13 | 0.669 ± 0.1 | 0.544 ± 0.096
16 | SAOS2 BONE | 0.824 ± 0.019 | 0.866 ± 0.013 | 0.891 ± 0.0052 | 0.831 ± 0.049 | 1.08 ± 0.038 | 1.12 ± 0.077 | 1.108 ± 0.0092 | 1.13 ± 0.095 | 1.08 ± 0.042 | 1.06 ± 0.032 | 1.04 ± 0.073 | 1.02 ± 0.018 | 1.02 ± 0.039 | 0.986 ± 0.078 | 0.885 ± 0.031 | 0.908 ± 0.047
17 | SCC36 HEADNECK | 0.761 ± 0.06 | 0.694 ± 0.059 | 0.803 ± 0.036 | 0.76 ± 0.028 | 0.97 ± 0.058 | 0.983 ± 0.017 | 0.974 ± 0.13 | 0.958 ± 0.067 | 1.09 ± 0.037 | 1.15 ± 0.03 | 1.09 ± 0.035 | 1.18 ± 0.12 | 1.03 ± 0.042 | 0.956 ± 0.057 | 0.776 ± 0.082 | 0.78 ± 0.087
18 | SCC47 HEADNECK | 0.871 ± 0.025 | 0.853 ± 0.017 | 0.953 ± 0.041 | 0.884 ± 0.016 | 0.981 ± 0.03 | 1.09 ± 0.03 | 0.999 ± 0.14 | 1.01 ± 0.051 | 0.82 ± 0.063 | 0.844 ± 0.011 | 0.951 ± 0.013 | 0.973 ± 0.087 | 0.928 ± 0.089 | 0.907 ± 0.044 | 0.628 ± 0.058 | 0.658 ± 0.024
19 | SCC90 HEADNECK | 0.874 ± 0.13 | 0.819 ± 0.034 | 0.955 ± 0.011 | 0.965 ± 0.17 | 1.18 ± 0.12 | 1.25 ± 0.077 | 0.64 ± 0.1 | 0.539 ± 0.053 | 0.786 ± 0.13 | 0.773 ± 0.081 | 0.991 ± 0.098 | 0.847 ± 0.16 | 0.672 ± 0.045 | 0.495 ± 0.12 | 0.235 ± 0.036 | 0.193 ± 0.037
